Consider two compounds from patent US10398682B2, “Methods and compositions to prevent or treat bacterial infections” (THE BOARD OF REGENTS OF THE UNIVERSITY OF TEXAS SYSTEM, priority 2013, dated 2019).

Molecules are shown by their SMILES. Values after ≈ are worked out from the molar mass of the structure shown.

In data set [1] the test system is Acinetobacter baumannii. Kind of data set: SIgA breakdown / secretory component liberation by Acinetobacter baumannii (Western blot). The format is cell-based. The note with it: for SC liberation / SIgA reduction: 2 hours after incubation. Here is the method: Acinetobacter baumannii was incubated with 50 μg/mL SIgA to examine breakdown of the immunoglobulin. Breakdown of SIgA by A. baumannii was observed by liberation of secretory component from dimeric IgA. Goat anti-human secretory component (free and bound) antibody was used to monitor this occurrence though Western blot. A mixture of A. baumannii strain CI 79 was prepared in three concentrations—10^7, 10^6, and 10^5 CFU/mL—to determine whether SIgA breakdown was dose dependent with respect to bacterial concentration FIG. 1A. […] Next, two competitive inhibitors of reductase enzymes targeting the thioredoxin fold (-C-X-X-C-) motif typically found in thiol-reductase enzymes (thioredoxin, glutathione, thioredoxin reductase, etc) were identified. The first, dithionitrobenzoic acid (Ellman's reagent) is often used as a colorimetric substrate to monitor thioredoxin activity as it produces a bright yellow color upon cleavage of the disulfide bond within the molecule. The second is PX-12. […] Although not shown here, inhibition was still evident at 24 hours with Ellman's reagent, PX-12 inhibition seemed to be overcome by the bacteria after about 12 hours. […] (Error bars represent±SEM in all graphs; statistical differences determined by ANOVA with Dunnett correction; *significance p<0.01; **p<0.001).

In data set [2] the test system is A. baumannii strain CI 79. Kind of data set: Bacterial adherence to mouse intestinal sections. The class given is cell-based, Acinetobacter baumannii. On the procedure:
Intestinal sections were cut down one side to expose the inner lumen of the intestine and individually placed in suspensions of A. baumannii strain CI 79 (10^7 CFU/mL). The sections were incubated in this mixture for 30 minutes, washed twice in 250 volumes of sterile PBS and soaked in 500 volumes of PBS (volume of section ˜50-100 μL) for five minutes. The remaining bound bacteria were enumerated through homogenization of each section into single cell suspensions in 10 mL sterile PBS followed by dilution plating.

Data set [3] concerns multi-drug resistant (MDR) Acinetobacter baumannii clinical isolates. Kind of data set: Minimum inhibitory concentration (MIC) determination. The format is cell-based. On the procedure:
PX-12 concentrations used in these experiments approximated the concentration reported “well tolerated” by mice (˜500 μg/mouse; 500 μg/mL for this experiment). […] Furthermore, this concentration was also bactericidal leading us to believe it may potentially be useful as a new antimicrobial compound for treating MDR Acinetobacter baumannii. (Bacterial concentrations used in presented studies ˜100× higher than recommended by CLSI standards)

In data set [4] the test system is Acinetobacter baumannii. Kind of data set: Repeat MIC experiment performed to CLSI standards. The format is cell-based.
For data set [5] the following is noted: humans; 300 mg/m^2 dose level; cited from earlier work.
The conditions of data set [6]: mouse, in vivo; cited from earlier work.
The mark [7] stands for this setting: cation adjusted Mueller Hinton broth, ~5×10^5 CFU/mL, 64 to 0.5 μg/mL tested.

Turning to `O=C(O)c1cc(SSc2ccc([N+](=O)[O-])c(C(=O)O)c2)ccc1[N+](=O)[O-]` [dithionitrobenzoic acid], in the data set on Acinetobacter baumannii [1] (inhibitor 1 mM), the SC liberation result is reported as “completely ablated” and the SIgA reduction entry is reported as “completely ablated”. Moreover, the “inhibition of SIgA reduction at 24 hours” value in the data set on Acinetobacter baumannii [1] (24 hours, not shown) is “still evident”. The “SIgA breakdown by Acinetobacter baumannii” value in the data set with Acinetobacter baumannii [1] (after addition of the substrate, concentration not given) is listed as “significantly reduced”.

Broadly, the MIC is the lowest concentration that inhibits growth of the organism. Read a low MIC as greater potency. On to `CCC(C)SSc1ncc[nH]1` (stereo not drawn) [PX-12, 1-methylpropyl 2-imidazolyl disulfide], for which, in the data set on Acinetobacter baumannii [1] (inhibitor 15 μg/mL), the SC liberation entry is “completely ablated” and the SIgA reduction entry is “completely ablated”. In the data set with Acinetobacter baumannii [1] (not shown), the “time after which inhibition is overcome by the bacteria” value was “about 12 hours”. The “SIgA breakdown by Acinetobacter baumannii” value in the data set with Acinetobacter baumannii [1] (up to 2 hours following treatment with 18 μg/mL) is on record as “significantly reduced”. In addition, in data set [2] (18 μg/mL, sections from WT C57BL/6 mice), the “bacterial adherence to intestinal sections” value is reported as “significantly inhibits”. For the same compound, the “reduction of bacterial attachment” value in data set [2] (WT intestinal sections as 100% control, A. baumannii CI 79 10^7 CFU/mL, 30 minutes) came out at 40%. For the same compound, the “bactericidal effect at the MIC” value in data set [3] (31.25 μg/mL) is reported as “bactericidal”. For the same compound, the bacterial pellet size entry in data set [3] (500 μg/mL) is listed as “visible decrease”. The same compound came in with an MIC in data set [3] (Acinetobacter baumannii, MDR clinical isolates, with one exception, bacterial concentrations ~100× higher than CLSI) of 31.2 µg/mL (≈ 166 µM). Further, in the data set on Acinetobacter baumannii [4] (setting [7]), the MBC result was “low” and the MIC entry is “low”. The “type of antimicrobial activity” value in the data set on Acinetobacter baumannii [4] (concluded from MIC and MBC) was “bactericidal activity”. In addition, the dose-limiting toxicities result in data set [5] was “Grade 3 hypoxia and Grade 2 reversible bilateral pneumonitis”. For the same compound, the “concentration reported well tolerated” value in data set [6] was about 500 μg/mouse.
